Patent publication US20070077283A1, “METHOD OF ENHANCING TRANSMUCOSAL DELIVERY OF THERAPEUTIC COMPOUNDS” (Nastech Pharmaceutical Company Inc., priority 2005, published 2007)

Legend:
[1] = test system: human-derived tracheal/bronchial epithelial cells (EpiAirway Tissue Model); test: TER recovery / TER time course; format: cell-based; details: for TER Recovery (ohms) 16 Hours / TER Recovery (ohms) 0 Hour: lipid 1000 μM in Buffer I; for TER Recovery (ohms) 16 Hours: 16 hours post-treatment; for TER Recovery (ohms) 0 Hour: zero hour post-treatment
Experimental: TER recovery was calculated as described in the above paragraph.
Reversibility is a critical factor in selecting epithelial cell permeabiling enhancers since the barrier function of the epithelial cells serves as the first line of defense against pathogens and the entrance of toxins into the body. The permeation enhancing lipids C16 PAF; C18 PAF; C16 Enantiomeric PAF; POVPC; C16-04: 1 PC and PGPC were incubated with a monolayer of human-derived tracheal/bronchial epithelial cells (EpiAirway™ Model System) and TER […] The lipid glucosyl sphingosine was also tested. Each permeation enhancing lipid (except PGPC) was applied at a concentration of 1000 μM for 15, 30 and 60 minutes. The permeation enhancing lipid PGPC and the lipid glucosyl sphingosine were applied at a concentration of 500 μM for 1, 3, 5, 30 and 60 minutes. TER measurements were taken immediately after each application to determine how quickly each lipid could reduce TER.
[…] […] PBS served as a negative control and Triton-X100™ served as a positive control.
To asses how quickly the cells recovered after application and removal of the permeation enhancing lipid PGPC and the lipid glucosyl sphingosine, TER measurements were taken at 1, 3, 5, 7, and 9 hours post-treamtnet for each of the prior mentioned timed treatments (i.e., 1, 3, 5, 15, 30 and 60 minutes). TER recovery measures the reversibility of the lipid mediated effect on an epithelia. […] Hyptonic PBS served as a negative control for TER reduction and TER recovery.

[2] = test system: human-derived tracheal/bronchial epithelial cells (EpiAirway Tissue Model); test: Insulin permeation across epithelial cell monolayer; format: cell-based; details: for permeation of insulin (in words): 1000 μM in the presence of Buffer I and Buffer II
Experimental: Also, the efficacy of a permeation enhancing lipid to enhance the permeation of insulin across and epithelial cell layer was measured. Refer to Example 2 of the instant application for general protocol details. […] Based on the FD3 permeation data in Table 8, the ability of the C16 PAF and C16 Enantiomeric PAF in the presence of Buffers I and II to enhance permeation of the biological agent insulin was assayed. Each lipid was tested at a 1000 μM concentration.

[3] = test system: human-derived tracheal/bronchial epithelial cells (EpiAirway Tissue Model); test: Cell viability (MTT assay); format: cell-based; details: for effect on cell viability (MTT assay): compared with control Special Sauce, data not shown (Example 3); for MTT levels (cell viability): compared with PBS negative control (Example 5)
Experimental: (§1) Cell viability will be assessed using the MTT assay (MTT-100, MatTek kit). This kit measures the uptake and transformation of tetrazolium salt to formazan dye. Thawed and diluted MTT concentrate is prepared 1 hour prior to the end of the dosing period with the lipid by mixing 2 mL of MTT concentrate with 8 mL of MTT diluent. Each cell culture insert is washed twice with PBS containing Ca^+2 and Mg^+2 and then transferred to a new 96-well transport plate containing 100 μL of the mixed MTT solution per well. This 96-well transport plate is then incubated for three hours at 37° C. and 5% CO2. After the three hour incubation, the MTT solution is removed and the cultures are transferred to a second 96-well feeder tray containing 250 μL MTT extractant solution per well. An additional 150 μL of MTT extractan solution was added to the surface of each culture well and the samples sat at room temperature in the dark for a minimum of two hours and maximum of 24 hours. The insert membrane was then pierced with a pipet tip and the solutions in the upper and lower wells were allowed to mix. Two hundred microliters of the mixed extracted solution along with extracted blanks (negative control) was transferred to a 96-well plate for measurement with a microplate reader. The optical density (OD) of the samples was measured at 570 nm with the background subtraction at 650 nm on a plate reader. Cell viability was expressed as a percentage and calculated by dividing the OD readings for treated inserts by the OD readings for the PBS treated inserts and multiplying by 100. For the purposes of this assay, it was assumed that PBS had no effect on cell viability and therefore represented 100% cell viability.

[4] = test system: human-derived tracheal/bronchial epithelial cells (EpiAirway Tissue Model); test: Peptide YY (PYY) permeation across epithelial cell monolayer; format: cell-based
Experimental: Permeation is expressed as percent permeation and was calculated as follows: [formula] [formula] Terms
In the instant example, the ability of permeation enhancing lipids to enhance the permeation of the biological agent, peptide YY (PYY; molecular weight of 3.7 kDa) across the epithelial cell monolayer model system (EpiAirway™) was measured. Also, the efficacy of a permeation enhancing lipid to enhance the permeation of insulin across and epithelial cell layer was measured. Refer to Example 2 of the instant application for general protocol details.

[5] = Cell viability (MTT assay); format: cell-based, human; details: human; PN159 25 μM / PYY 13.67 mg/mL (High)
Experimental: as §1

[6] = lipid 500 μM / PYY 13.67 mg/mL (High)
[7] = after 1, 3, 5, 15 and 30 minute treatments, lipids 500 μM, PN159 25 μM
[8] = after 60 minute treatment, lipids 500 μM, PN159 25 μM

CCCCCCCCCCCCCCCCOC[C@@H](COP(=O)([O-])OCC[N+](C)(C)C)OC(C)=O [C16 Enantiomeric PAF, 3-O-Hexadecyl-2-Acetoyl-sn-Glycero-1-Phosphocholine]
TER Recovery (ohms) 16 Hours [1]: 462 ohms | TER Recovery (ohms) 0 Hour [1]: 9 ohms | permeation of insulin (in words) [2]: enhance the permeation of insulin across an epithelial cell monolayer | % Insulin Permeation ([2]; lipid 1000 μM in Buffer I): 3% | % Insulin Permeation ([2]; lipid 1000 μM in Buffer II): 8%

CCCCCCCCCCCCCCCCOC[C@H](COP(=O)([O-])OCC[N+](C)(C)C)OC(C)=O [C16-02:0 PC(C16 PAF), 1-O-Hexadecyl-2-Acetoyl-sn-Glycero-3-Phosphocholine]
effect on cell viability (MTT assay) [3]: did not reduce cell viability below that of Special Sauce | TER Recovery (ohms) 16 Hours [1]: 650 ohms | TER Recovery (ohms) 0 Hour [1]: 9 ohms | permeation of insulin (in words) [2]: enhance the permeation of insulin across an epithelial cell monolayer | permeation of insulin ([2]; lipid 1000 μM (Example 6)): more than 3% | % Insulin Permeation ([2]; lipid 1000 μM in Buffer I): 4% | % Insulin Permeation ([2]; lipid 1000 μM in Buffer II): 8% | % Insulin Permeation ([2]; lipid 1000 μM in PBS): 3%

C=CCC(=O)O[C@H](COCCCCCCCCCCCCCCCC)COP(=O)([O-])OCC[N+](C)(C)C [C16-04:1 PC]
effect on cell viability (MTT assay) [3]: did not reduce cell viability below that of Special Sauce | TER Recovery (ohms) 16 Hours [1]: 520 ohms | TER Recovery (ohms) 0 Hour [1]: 10 ohms

CCCCCCCCCCCCCCCCCCOC[C@H](COP(=O)([O-])OCC[N+](C)(C)C)OC(C)=O [C18-02:0 PC(C18 PAF), 1-O-Octadecyl-2-Acetoyl-sn-Glycero-3-Phosphocholine]
effect on cell viability (MTT assay) [3]: did not reduce cell viability below that of Special Sauce | TER Recovery (ohms) 16 Hours [1]: 497 ohms | TER Recovery (ohms) 0 Hour [1]: 6 ohms

CCCCCCCCCCCCCCCC(=O)OC[C@H](COP(=O)([O-])OCC[N+](C)(C)C)OC(=O)CCCC(=O)O [PGPC, 1-Palmitoyl-2-Glutaroyl-sn-Glycero-3-Phosphocholine]
MTT levels (cell viability) [3]: MTT levels comparable to that of the PBS negative control | % Cell Viability [3, 6]: 113% | time to full TER recovery (PBS control levels) [1, 7]: fully recovered within one hour | time to full TER recovery (PBS control levels) [1, 8]: did not reach PBS TER control levels until three hours post-treatment | % PYY Permeation [4, 6]: 0.13%

CC(C)C[C@H](NC(=O)[C@H](C)NC(=O)[C@H](CCCCN)NC(=O)[C@H](CC(C)C)NC(=O)[C@H](C)NC(=O)[C@H](CC(C)C)NC(=O)[C@H](CCCCN)NC(=O)[C@H](CC(C)C)NC(=O)[C@H](C)NC(=O)[C@H](CC(C)C)NC(=O)[C@@H](N)CCCCN)C(=O)N[C@@H](CCCCN)C(=O)N[C@@H](C)C(=O)N[C@@H](C)C(=O)N[C@@H](CC(C)C)C(=O)N[C@@H](CCCCN)C(=O)N[C@@H](CC(C)C)C(=O)N[C@@H](C)C(N)=O [PN159, reference compound]
viability at 25 µM [5]: 89% | time to full TER recovery (PBS control levels) [1, 7]: 2 h | time to full TER recovery (PBS control levels) [1, 8]: 9 h | time to TER reduction ([1]; lipids 500 μM, PN159 25 μM): 10 min | % PYY Permeation ([4]; PN159 25 μM / PYY 13.67 mg/mL (High)): 3.71%

CCCCCCCCCCCCCCCC(=O)OC[C@H](COP(=O)([O-])OCC[N+](C)(C)C)OC(=O)CCCC=O [POVPC, 1-Palmitoyl-2-(5′-oxo-Valeroyl)-sn-Glycero-3-Phosphocholine]
MTT levels (cell viability) [3]: MTT levels comparable to that of the PBS negative control | effect on cell viability (MTT assay) [3]: did not reduce cell viability below that of the control Special Sauce | TER Recovery (ohms) 16 Hours [1]: 508 ohms | TER Recovery (ohms) 0 Hour [1]: 71 ohms
